Measurements published in patent US7462600B2, “Macrolides” (Pfizer Inc, priority 2004, dated 2008).
Values after ≈ are worked out from the molar mass of the structure shown.

Experiments:
Type in all cases: cell-based
[1] = system: Streptococcus pneumoniae 1016; assay: MIC, microtiter broth dilution (NCCLS M100-S14), S. pneumoniae 1016 (susceptible); conditions: Streptococcus pneumoniae 1016
Summary of the method: (§1)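 Susceptibility testing used microtiter trays with broth dilution. Values are minimum inhibitory concentrations interpreted under NCCLS guidance (M100-S14).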

[2] = system: Streptococcus pyogenes 1079; assay: MIC, microtiter broth dilution (NCCLS M100-S14), S. pyogenes 1079 (ermB); conditions: Streptococcus pyogenes 1079
Summary of the method: as §1

[3] = system: Haemophilus influenzae 1218; assay: MIC, microtiter broth dilution (NCCLS M100-S14), H. influenzae 1218 (susceptible); conditions: Haemophilus influenzae 1218
Summary of the method: as §1

[4] = system: Streptococcus pneumoniae 1095; conditions: Streptococcus pneumoniae 1095; microtiter broth dilution
Summary of the method: as §1

[5] = system: Streptococcus pneumoniae 1175; conditions: Streptococcus pneumoniae 1175; microtiter broth dilution
Summary of the method: as §1

Row | SMILES | MIC S. pneumo. 1016 [1] [µg/mL] | MIC S. pyogenes 1079 [2] [µg/mL] | MIC H. influenzae 1218 [3] [µg/mL] | MIC S. pneumo. 1095 [4] [µg/mL] | MIC S. pneumo. 1175 [5] [µg/mL]
1 | CCC1OC(=O)C(C)C(=O)C(C)C(OC2OC(C)CC(N(C)C)C2O)C(C)(OC)CC(C)C(=O)C(C)C2N(C3CN(Cc4cccc5ncccc45)C3)C(=O)OC12C (centres unmarked) [Example 1.06, 3-descladinosyl-11,12-dideoxy-6-O-methyl-3-oxo-12,11-(oxycarbonyl-(1-((quinolin-5-yl)-methyl)-azetidin-3-yl)-imino)-erythromycin A] | <0.06 | 4 (≈ 4.94 µM) | 1 (≈ 1.24 µM) | <0.06 | <0.06
2 | CCC1OC(=O)C(C)C(=O)C(C)C(OC2OC(C)CC(N(C)C)C2O)C(C)(OC)CC(C)C(=O)C(C)C2N(C3CN(Cc4cccc5nc[nH]c45)C3)C(=O)OC12C (centres unmarked) [Example 1.11, 3-descladinosyl-11,12-dideoxy-6-O-methyl-3-oxo-12,11-(oxycarbonyl-(1-((1H-benzoimidazol-7-yl)-methy)-azetidin-3-yl)-imino)-erythromycin A] | <0.06 | 4 (≈ 5.01 µM) | <0.06 | <0.06 | 0.5 (≈ 0.627 µM)
3 | CCC1OC(=O)C(C)C(=O)C(C)C(OC2OC(C)CC(N(C)C)C2O)C(C)(OC)CC(C)C(=O)C(C)C2N(C3CN(Cc4cccc5nccnc45)C3)C(=O)OC12C (centres unmarked) [Example 1.12, 3-descladinosyl-11,12-dideoxy-6-O-methyl-3-oxo-12,11-(oxycarbonyl-(1-((quinoxalin-8-yl)-methyl)-azetidin-3-yl)-imino)-erythromycin A] | <0.06 | 2 (≈ 2.47 µM) | 0.25 (≈ 0.309 µM) | <0.06 | <0.06
4 | CCC1OC(=O)C(C)C(=O)C(C)C(OC2OC(C)CC(N(C)C)C2O)C(C)(OC)CC(C)C(=O)C(C)C2N(C3CN(Cc4cccc5ncoc45)C3)C(=O)OC12C (centres unmarked) [Example 1.13, (benzooxazol-7-yl)methyl] | <0.06 | 64 (≈ 80.1 µM) | 0.25 (≈ 0.313 µM) | 0.12 (≈ 0.15 µM) | 1 (≈ 1.25 µM)
5 | CCC1OC(=O)C(C)C(=O)C(C)C(OC2OC(C)CC(N(C)C)C2O)C(C)(OC)CC(C)C(=O)C(C)C2N(C3CN(Cc4ccc(C#N)cc4)C3)C(=O)OC12C (centres unmarked) [Example 1.14, 4-cyanobenzyl] | <0.06 | >64.00 | 0.25 (≈ 0.319 µM) | 1 (≈ 1.28 µM) | 0.5 (≈ 0.639 µM)
6 | CCC1OC(=O)C(C)C(=O)C(C)C(OC2OC(C)CC(N(C)C)C2O)C(C)(OC)CC(C)C(=O)C(C)C2N(C3CN(Cc4cccc(C#N)c4)C3)C(=O)OC12C (centres unmarked) [Example 1.15, 3-cyanobenzyl] | <0.06 | >64.00 | 0.25 (≈ 0.319 µM) | <0.06 | 0.25 (≈ 0.319 µM)
7 | CCC1OC(=O)C(C)C(=O)C(C)C(OC2OC(C)CC(N(C)C)C2O)C(C)(OC)CC(C)C(=O)C(C)C2N(C3CN(Cc4ccnc5ccccc45)C3)C(=O)OC12C (centres unmarked) [Example 1.16, 3-descladinosyl-11,12-dideoxy-6-O-methyl-3-oxo-12,11-(oxycarbonyl-(1-((quinolin-4-yl)-methyl)-azetidin-3-yl)-imino)-erythromycin A] | <0.06 | 4.25 (≈ 5.25 µM) | 0.5 (≈ 0.618 µM) | <0.06 | 0.25 (≈ 0.309 µM)
8 | CCC1OC(=O)C(C)C(=O)C(C)C(OC2OC(C)CC(N(C)C)C2O)C(C)(OC)CC(C)C(=O)C(C)C2N(C3CN(Cc4cnc5ncccc5c4)C3)C(=O)OC12C (centres unmarked) [Example 1.17, (1,8-naphthyridin-3-yl)methyl] | <0.06 | >64.00 | 0.12 (≈ 0.148 µM) | <0.06 | 0.25 (≈ 0.309 µM)
9 | CCC1OC(=O)C(C)C(=O)C(C)C(OC2OC(C)CC(N(C)C)C2O)C(C)(OC)CC(C)C(=O)C(C)C2N(C3CN(Cc4ccn[nH]4)C3)C(=O)OC12C (centres unmarked) [Example 1.18, (1H-pyrazol-5-yl)methyl] | <0.06 | >64.00 | 0.25 (≈ 0.334 µM) | 1 (≈ 1.34 µM) | 2 (≈ 2.67 µM)
10 | CCC1OC(=O)C(C)C(=O)C(C)C(OC2OC(C)CC(N(C)C)C2O)C(C)(OC)CC(C)C(=O)C(C)C2N(C3CN(Cc4cn[nH]c4)C3)C(=O)OC12C (centres unmarked) [Example 1.19, (1H-pyrazol-4-yl)methyl] | <0.06 | >64.00 | 0.5 (≈ 0.669 µM) | 0.12 (≈ 0.16 µM) | 4 (≈ 5.35 µM)
11 | CCC1OC(=O)C(C)C(=O)C(C)C(OC2OC(C)CC(N(C)C)C2O)C(C)(OC)CC(C)C(=O)C(C)C2N(C3CN(Cc4ccnc5ncccc45)C3)C(=O)OC12C (centres unmarked) [Example 1.20, 3-descladinosyl-11,12-dideoxy-6-O-methyl-3-oxo-12,11-(oxycarbonyl-(1-((1,8-naphthyridin-4-yl)-methyl)-azetidin-3-yl)-imino)erythromycin A] | <0.06 | 1 (≈ 1.23 µM) | 0.25 (≈ 0.309 µM) | <0.06 | 0.12 (≈ 0.148 µM)
12 | CCC1OC(=O)C(C)C(=O)C(C)C(OC2OC(C)CC(N(C)C)C2O)C(C)(OC)CC(C)C(=O)C(C)C2N(C3CN(C(C)c4ccncc4)C3)C(=O)OC12C (stereo not drawn) [Example 1.21, 1R-(pyridin-4-yl)ethyl] | <0.06 | 32 (≈ 41.4 µM) | 2 (≈ 2.59 µM) | <0.06 | 0.5 (≈ 0.647 µM)
13 | CCC1OC(=O)C(C)C(=O)C(C)C(OC2OC(C)CC(N(C)C)C2O)C(C)(OC)CC(C)C(=O)C(C)C2N(C3CN(C(C)c4ccncc4)C3)C(=O)OC12C (stereo not drawn) [Example 1.22, 1S-(pyridin-4-yl)ethyl] | <0.06 | >64.00 | 16 (≈ 20.7 µM) | 1 (≈ 1.29 µM) | 1 (≈ 1.29 µM)
14 | CCC1OC(=O)C(C)C(=O)C(C)C(OC2OC(C)CC(N(C)C)C2O)C(C)(OC)CC(C)C(=O)C(C)C2N(C3CN(C(C)c4ccnc5ncccc45)C3)C(=O)OC12C (stereo not drawn) [Example 1.23, 3-descladinosyl-11,12-dideoxy-6-O-methyl-3-oxo-12,11-(oxycarbonyl-(1-(1S-(1,8-naphthyridin4-yl)-ethyl)-azetidin-3-yl)-imino)-erythromycin A] | <0.06 | 16 (≈ 19.4 µM) | 0.5 (≈ 0.607 µM) | <0.06 | 0.25 (≈ 0.303 µM)
15 | CCC1OC(=O)C(C)C(=O)C(C)C(OC2OC(C)CC(N(C)C)C2O)C(C)(OC)CC(C)C(=O)C(C)C2N(C3CN(Cc4ccnc5nccnc45)C3)C(=O)OC12C (centres unmarked) [Example 1.24, 3-descladinosyl-11,12-dideoxy-6-O-methyl-3-oxo-12,11-(oxycarbonyl-(1-((pyrido[2,3-b]pyrazin-4-yl)-methy)-azetidin-3-yl)-imino)-erythromycin A] | <0.06 | 4 (≈ 4.93 µM) | 1 (≈ 1.23 µM) | <0.06 | 0.25 (≈ 0.308 µM)
16 | CC[C@H]1OC(=O)[C@H](C)C(=O)[C@H](C)[C@@H](O[C@@H]2O[C@H](C)C[C@H](N(C)C)[C@H]2O)[C@](C)(OC)C[C@@H](C)C(=O)[C@H](C)[C@H]2N(C3CN([C@H](C)c4ccnc5ncccc45)C3)C(=O)O[C@]12C [Example 1.25, 3-descladinosyl-11,12-dideoxy-6-O-methyl-3-oxo-12,11-(oxycarbonyl-(1-(1R-(1,8-naphthyridin4-yl)-ethyl)-azetidin-3-yl)-imino)-erythromycin A] | <0.06 | 1 (≈ 1.21 µM) | 0.5 (≈ 0.607 µM) | <0.06 | 0.25 (≈ 0.303 µM)
17 | CCC1OC(=O)C(C)C(=O)C(C)C(OC2OC(C)CC(N(C)C)C2O)C(C)(OC)CC(C)C(=O)C(C)C2N(C3CN(Cc4ccnc5cccnc45)C3)C(=O)OC12C (centres unmarked) [Example 1.26, 3-descladinosyl-11,12-dideoxy-6-O-methyl-3-oxo-12,11-(oxycarbonyl-(1-((1,5-naphthyridin4-yl)-methyl)-azetidin-3-yl)-imino)-erythromycin A] | <0.06 | 1 (≈ 1.23 µM) | 0.38 (≈ 0.469 µM) | <0.06 | <0.06
18 | CCC1OC(=O)C(C)C(=O)C(C)C(OC2OC(C)CC(N(C)C)C2O)C(C)(OC)CC(C)C(=O)C(C)C2N(C3CN(Cc4ccnc5ccncc45)C3)C(=O)OC12C (centres unmarked) [Example 1.27, 3-descladinosyl-11,12-dideoxy-6-O-methyl-3-oxo-12,11-(oxycarbonyl-(1-((1,6-naphthyridin-4-yl)-methyl)-azetidin-3-yl)-imino)-erythromycin A] | <0.06 | 2 (≈ 2.47 µM) | 0.5 (≈ 0.617 µM) | <0.06 | 0.5 (≈ 0.617 µM)
19 | CCC1OC(=O)C(C)C(=O)C(C)C(OC2OC(C)CC(N(C)C)C2O)C(C)(OC)CC(C)C(=O)C(C)C2N(C3CN(Cc4ccc5nccnc5c4)C3)C(=O)OC12C (centres unmarked) [Example 1.28, 3-descladinosyl-11,12-dideoxy-6-O-methyl-3-oxo-12,11-(oxycarbonyl-(1-((quinoxalin-6-yl)-methyl)-azetidin-3-yl)-imino)-erythromycin A] | <0.06 | 8 (≈ 9.88 µM) | 0.5 (≈ 0.617 µM) | <0.06 | 4 (≈ 4.94 µM)
